Data on 21 compounds can be found in patent US12630528B2, “Amino aryl derivative useful as diacylglycerol acyltransferase 2 inhibitor and use thereof” (LG CHEM, LTD., priority 2019, dated 2026).

Molecules are shown by their SMILES.

The experiment has as its target T1, human DGAT2 (Homo sapiens, UniProt Q96PD7).
T1 construct: FLAG (DYKDDDDK); made in house; host or cells: Sf-21 insect cells (BacPAK baculovirus system); membrane fraction used
T1 sequence (Q96PD7 1-388): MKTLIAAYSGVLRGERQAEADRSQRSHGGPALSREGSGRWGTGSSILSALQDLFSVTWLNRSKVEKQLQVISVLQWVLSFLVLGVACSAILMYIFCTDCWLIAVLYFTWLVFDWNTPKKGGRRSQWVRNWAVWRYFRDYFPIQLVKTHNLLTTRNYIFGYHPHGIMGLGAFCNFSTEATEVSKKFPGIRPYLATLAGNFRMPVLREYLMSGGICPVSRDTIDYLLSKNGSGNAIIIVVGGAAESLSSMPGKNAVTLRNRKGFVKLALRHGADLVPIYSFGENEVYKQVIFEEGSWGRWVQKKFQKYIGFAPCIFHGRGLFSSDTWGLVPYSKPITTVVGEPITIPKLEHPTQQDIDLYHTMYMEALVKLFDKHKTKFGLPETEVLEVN
Briefly: DGAT2 enzyme activity inhibition, Phospholipid FlashPlate SPA. Format: biochemical. Conditions: recombinant human DGAT2 membrane protein from Sf-21 cells; inhibition of [14C]-TG production; 37° C. On the procedure: In order to prepare the pBacPAK9-DGAT2, which is DGAT2 expression vector, the human DGAT2 gene amplified by polymerase chain reaction (PCR) was cloned into the EcoR1 and Xho1 sites of the pBacPAK9 (clonctech) vector. The nucleotide sequence of the primers used in PCR was the forward primer 5′ […] (SEQ. ID. NO: 2). The composition of the reaction solution was to contain 50 ng of cDNA clone (OriGene), 200 μM of dATP, dCTP, dTTP, dGTP, 200 nM of each primer, 1 unit of Tag DNA Polymerase (Toyobo), 1×PCR buffer, and the final volume was adjusted to 20 μl. The reaction conditions were denatured at 95° C. for 5 minutes, followed by 30 times of 94° C. for 20 seconds, 60° C. for 20 seconds, and 72° C. for 90 seconds, followed by further reaction at 72° C. for 7 minutes.
Recombinant human DGAT2 protein was expressed in Sf-21 cells, which are insect cells, by using the BacPack baculovirus expression system (Clontech). The brief manufacturing process is as follows. First, the pBacPAK9-DGAT2 expression vector was transfected with BacPAK6 virus DNA (Bsu36I digest) into sf21 cells using Bacfectin to prepare a recombinant DGAT2 expressing baculovirus. The thus prepared baculovirus was infected with Sf-21 cells at 10 MOI (multiplicity of infection), and after 72 hours, infected insect cells were collected and membrane proteins were isolated. For membrane protein separation, the cell pellet was dissolved in a sucrose solution containing 250 mM sucrose, 10 mM Tris (pH 7.4), and 1 mM ethylenediamine-tetraacetic acid (EDTA), and then homogenized by using a dounce homogenizer, and the supernatant was taken by centrifuging at 600×g for 15 minutes, and centrifuged at 100,000×g for 1 hour to discard the supernatant, and the remaining pellet was resuspended in 20 mM HEPES buffer (pH 7.4). The prepared DGAT2 overexpressing membrane protein was dispensed in 100 μl and stored at −80° C. until use. Protein concentration was quantified by using the BCA Protein Assay Kit (Thermo Scientific).
In vitro DGAT2 analysis was performed using a Phospholipid Flash Plate (PerkinElmer) based on the principle of SPA (Scintilation Proximity Assay). First, DGAT2 inhibition compounds serially diluted 5 times from 3 nM to 10 μM (final concentration, 1% DMSO) were mixed in a buffer solution containing 2 μg DGAT2-membrane protein and 20 mM HEPES, 20 mM MgCl2, 1 mg/mL BSA, 50 μM 1,2 sn-oleoyl glycerol (Sigma), put in a 96-well flash plate (FlashPlate) and reacted at 37° C. for 20 minutes, and then 1 μM [14C] ole oil CoA (PerkinElmer, NEC651050UC) was added to be a final volume of 100 μL and further reacted at 37° C. for 15 minutes. After the enzymatic reaction was completed, 100 μL of isopropanol was added, the plate was sealed with a film, and the plate was shaken slowly in a plate shaker. The next day, the amplified scintillation signal (cpm) in Topcounter (Packard) was measured to measure the degree of production of [14C]-labeled triacyl glycerol (TG) as a reaction product. The measured value when the compound was not treated was used as a positive control, and the measured value of the compound treated group was calculated as a relative % to measure the inhibition effect of the compound on TG production.
Broadly, the IC50 is the concentration that inhibits the measured activity by half. Regarding `CCOc1cccnc1O[C@@H]1CCCN(c2cncc(Nc3nccc(-c4ccc(C(C)(C)C(=O)O)cc4)n3)n2)C1` [Example 144, (R)-2-(4-(2-((6-(3-((3-ethoxypyridin-2-yl)oxy)piperidin-1-yl)pyrazin-2-yl)amino)pyrimidin-4-yl)phenyl)-2-methylpropanoic Acid], the IC50 was 0.23 µM.
In the case of `CCOc1ccccc1O[C@@H]1CCCN(c2cncc(Nc3ccnc(-c4ccc(CC(C)(C)C(=O)O)cc4)n3)n2)C1` [Example 172, (R)-3-(4-(4-((6-(3-(2-ethoxyphenoxy)piperidin-1-yl)pyrazin-2-yl)amino)pyrimidin-2-yl)phenyl)-2,2-dimethylpropanoic Acid], the IC50 was 0.25 µM.
In the case of `CCOc1ccccc1O[C@@H]1CCCN(c2cncc(Nc3nccc(-c4cccc(CC(=O)O)c4)n3)n2)C1` [Example 140, (R)-2-(3-(2-((6-(3-(2-ethoxyphenoxy)piperidin-1-yl)pyrazin-2-yl)amino)pyrimidin-4-yl)phenyl)acetic Acid] it was 0.15 µM.
The same measure for `CCOc1ccccc1O[C@@H]1CCCN(c2cncc(Nc3nc4ccccc4o3)n2)C1` [Example 10, (R)—N-(6-(3-(2-ethoxyphenoxy)piperidin-1-yl)pyrazin-2-yl)benzo[d]oxazol-2-amine]: 0.25 µM; for `CCOc1ccccc1O[C@@H]1CCCN(c2cncc(Nc3nccc(N4CCC(C(=O)O)CC4)n3)n2)C1` [Example 123, (R)-1-(2-((6-(3-(2-ethoxyphenoxy)piperidin-1-yl)pyrazin-2-yl)amino)pyrimidin-4-yl)piperidine-4-carboxylic Acid]: 5.5 µM; for `CCOc1ccccc1O[C@@H]1CCCN(c2cncc(Nc3cccc(-c4cccc(CC(C)(C)C(=O)O)c4)n3)n2)C1` [Example 63, (R)-3-(3-(6-((6-(3-(2-ethoxyphenoxy)piperidin-1-yl)pyrazin-2-yl)amino)pyridin-2-yl)phenyl)-2,2-dimethylpropanoic Acid]: 0.071 µM.
For the compound `CCOc1cccnc1O[C@@H]1CCCN(c2cncc(Nc3cccc(-c4cc(CC(C)(C)C(=O)O)ccc4F)n3)n2)C1` [Example 79, (R)-3-(3-(6-((6-(3-((3-ethoxypyridin-2-yl)oxy)piperidin-1-yl)pyrazin-2-yl)amino)pyridin-2-yl)-4-fluorophenyl)-2,2-dimethylpropanoic Acid], the IC50 was found to be 0.27 µM.
Take `CCOc1ccccc1O[C@@H]1CCCN(c2cncc(Nc3ccc(F)c(-c4cccc(CC(C)(C)C(=O)O)c4)n3)n2)C1` [Example 102, (R)-3-(3-(6-((6-(3-(2-ethoxyphenoxy)piperidin-1-yl)pyrazin-2-yl)amino)-3-fluoropyridin-2-yl)phenyl)-2,2-dimethylpropanoic Acid]: the IC50 was determined as 0.14 µM.
As to `CCOc1ccccc1O[C@@H]1CCCN(c2cncc(Nc3nccc(N4CCCC(C(=O)O)C4)n3)n2)C1` (stereo partly drawn) [Example 120, 1-(2-((6-((R)-3-(2-ethoxyphenoxy)piperidin-1-yl)pyrazin-2-yl)amino)pyrimidin-4-yl)piperidine-3-carboxylic Acid], the IC50 is 0.89 µM.
The same measure for `CCOc1ccccc1O[C@@H]1CCCN(c2cncc(Nc3cccc(N4CCC(C(C)(C)C(=O)O)CC4)n3)n2)C1` [Example 58, (R)-2-(1-(6-((6-(3-(2-ethoxyphenoxy)piperidin-1-yl)pyrazin-2-yl)amino)pyridin-2-yl)piperidin-4-yl)-2-methylpropanoic Acid]: 0.31 µM.
Take `CCOc1ccccc1O[C@@H]1CCCN(c2cncc(Nc3cccc(-c4ccc(CC(C)(C)C(=O)O)cc4)n3)n2)C1` [Example 72, (R)-3-(4-(6-((6-(3-(2-ethoxyphenoxy)piperidin-1-yl)pyrazin-2-yl)amino)pyridin-2-yl)phenyl)-2,2-dimethylpropanoic Acid]: the IC50 was determined as 0.14 µM.
For `CCOc1ccccc1O[C@@H]1CCCN(c2cncc(Nc3cccc(-c4cc(OC(C)(C)C(=O)O)ccc4F)n3)n2)C1` [Example 84, (R)-2-(3-(6-((6-(3-(2-ethoxyphenoxy)piperidin-1-yl)pyrazin-2-yl)amino)pyridin-2-yl)-4-fluorophenoxy)-2-methylpropanoic Acid], the IC50 is 0.4 µM.
The same measure for `CCOc1ccccc1O[C@@H]1CCCN(c2cncc(Nc3cccc(-c4ccc(NC(C)(C)C(=O)O)cc4)n3)n2)C1` [Example 77, (R)-2-((4-(6-((6-(3-(2-ethoxyphenoxy)piperidin-1-yl)pyrazin-2-yl)amino)pyridin-2-yl)phenyl)amino)-2-methylpropanoic Acid]: 0.25 µM; for `CCOc1ccccc1O[C@@H]1CCCN(c2cncc(Nc3cc(-c4cccc(CC(C)(C)C(=O)O)c4)ccn3)n2)C1` [Example 44, (R)-3-(3-(2-((6-(3-(2-ethoxyphenoxy)piperidin-1-yl)pyrazin-2-yl)amino)pyridin-4-yl)phenyl)-2,2-dimethylpropanoic Acid]: 4 µM.
The same measure for `CCOc1cccnc1O[C@@H]1CCCN(c2ccnc(Nc3nccc(-c4ccc(CC(C)(C)C(=O)O)cc4)n3)n2)C1` [Example 157, (R)-3-(4-(2-((4-(3-((3-ethoxypyridin-2-yl)oxy)piperidin-1-yl)pyrimidin-2-yl)amino)pyrimidin-4-yl)phenyl)-2,2-dimethylpropanoic Acid]: 0.72 µM; for `CCOc1ccccc1O[C@@H]1CCCN(c2cncc(Nc3cccc(N4CCC(CC(=O)O)CC4)n3)n2)C1` [Example 57, (R)-2-(1-(6-((6-(3-(2-ethoxyphenoxy)piperidin-1-yl)pyrazin-2-yl)amino)pyridin-2-yl)piperidin-4-yl)acetic Acid]: 0.33 µM.
The same measure for `CCOc1ccccc1O[C@@H]1CCCN(c2cncc(Nc3nc(-c4cccc(CC(C)(C)C(=O)O)c4)ccc3F)n2)C1` [Example 100, (R)-3-(3-(6-((6-(3-(2-ethoxyphenoxy)piperidin-1-yl)pyrazin-2-yl)amino)-5-fluoropyridin-2-yl)phenyl)-2,2-dimethylpropanoic Acid]: 0.43 µM; for `CCOc1ccccc1O[C@@H]1CCCN(c2cncc(Nc3cccc(C(C)(C)C(=O)O)c3)n2)C1` [Example 29, (R)-2-(3-((6-(3-(2-ethoxyphenoxy)piperidin-1-yl)pyrazin-2-yl)amino)phenyl)-2-methylpropanoic Acid]: 6.4 µM.
`CCOc1cccnc1O[C@@H]1CCCN(c2cncc(Nc3ccc(F)c(-c4cc(CC(C)(C)C(=O)O)ccc4F)n3)n2)C1` [Example 106, (R)-3-(3-(6-((6-(3-((3-ethoxypyridin-2-yl)oxy)piperidin-1-yl)pyrazin-2-yl)amino)-3-fluoropyridin-2-yl)-4-fluorophenyl)-2,2-dimethylpropanoic Acid]: the IC50 was found to be 0.49 µM.
In the case of `CCOc1ccccc1O[C@@H]1CCCN(c2cncc(Nc3ccc(CC(=O)NCc4ccncc4)cc3)n2)C1` [Example 26, (R)-2-(4-((6-(3-(2-ethoxyphenoxy)piperidin-1-yl)pyrazin-2-yl)amino)phenyl)-N-(pyridin-4-ylmethyl)acetamide], the IC50 is 6.7 µM.
For the compound `CCOc1ccccc1O[C@@H]1CCCN(c2cncc(Nc3ncc(F)c(-c4cccc(CC(C)(C)C(=O)O)c4)n3)n2)C1` [Example 164, (R)-3-(3-(2-((6-(3-(2-ethoxyphenoxy)piperidin-1-yl)pyrazin-2-yl)amino)-5-fluoropyrimidin-4-yl)phenyl)-2,2-dimethylpropanoic Acid], the IC50 is 0.32 µM.
